Assay results from PubChem BioAssay (NCI).
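Exposure lasted 48 hours, with cells grown in 96-well plates and compounds tested at five concentrations. The concentration for full growth arrest is given as TGI.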

Assays:
Assay in all cases: NCI anticancer screen, dose series, 48 h
ACHN renal = test system: ACHN renal
COLO 205 colon = test system: COLO 205 colon
SNB-19 CNS = test system: SNB-19 CNS
SK-MEL-28 melanoma = test system: SK-MEL-28 melanoma
CCRF-CEM leukemia = test system: CCRF-CEM leukemia
HCT-116 colon = test system: HCT-116 colon
CAKI-1 renal = test system: CAKI-1 renal
UACC-62 melanoma = test system: UACC-62 melanoma
TK-10 renal = test system: TK-10 renal
SN12C renal = test system: SN12C renal
SF-268 CNS = test system: SF-268 CNS
HCT-15 colon = test system: HCT-15 colon
NCI/ADR-RES ovarian = test system: NCI/ADR-RES ovarian
OVCAR-4 ovarian = test system: OVCAR-4 ovarian
U251 CNS = test system: U251 CNS
MDA-N = test system: MDA-N
MDA-MB-435 = test system: MDA-MB-435
HCC-2998 colon = test system: HCC-2998 colon
DU-145 prostate = test system: DU-145 prostate
OVCAR-3 ovarian = test system: OVCAR-3 ovarian
A549 NSCLC = test system: A549 NSCLC
HOP-92 NSCLC = test system: HOP-92 NSCLC
UO-31 renal = test system: UO-31 renal
RPMI-8226 leukemia = test system: RPMI-8226 leukemia
NCI-H522 lung = test system: NCI-H522 lung
SF-539 CNS = test system: SF-539 CNS
SNB-75 CNS = test system: SNB-75 CNS
NCI-H226 lung = test system: NCI-H226 lung
NCI-H460 lung = test system: NCI-H460 lung
EKVX NSCLC = test system: EKVX NSCLC
HS 578T breast = test system: HS 578T breast
SF-295 CNS = test system: SF-295 CNS
SR leukemia = test system: SR leukemia
M14 melanoma = test system: M14 melanoma
MCF7 breast = test system: MCF7 breast
PC-3 prostate = test system: PC-3 prostate
A498 renal = test system: A498 renal
RXF 393 renal = test system: RXF 393 renal
MDA-MB-231 breast = test system: MDA-MB-231 breast
MALME-3M melanoma = test system: MALME-3M melanoma
SK-MEL-5 melanoma = test system: SK-MEL-5 melanoma
KM12 colon = test system: KM12 colon
SW-620 colon = test system: SW-620 colon
T-47D breast = test system: T-47D breast
OVCAR-5 ovarian = test system: OVCAR-5 ovarian
BT-549 breast = test system: BT-549 breast
SK-MEL-2 melanoma = test system: SK-MEL-2 melanoma
SK-OV-3 ovarian = test system: SK-OV-3 ovarian
IGROV1 ovarian = test system: IGROV1 ovarian
786-0 renal = test system: 786-0 renal
HL-60(TB) leukemia = test system: HL-60(TB) leukemia
UACC-257 melanoma = test system: UACC-257 melanoma
OVCAR-8 ovarian = test system: OVCAR-8 ovarian
HT29 colon = test system: HT29 colon
NCI-H23 lung = test system: NCI-H23 lung
LOX IMVI melanoma = test system: LOX IMVI melanoma
K-562 leukemia = test system: K-562 leukemia
HOP-62 NSCLC = test system: HOP-62 NSCLC
MOLT-4 leukemia = test system: MOLT-4 leukemia

N#C/C(=C/N1C(=O)/C(=C/c2ccc([N+](=O)[O-])cc2)SC1=S)c1nc2ccccc2s1
TGI (ACHN renal): 55.3 µM
TGI (COLO 205 colon): 30 µM
TGI (SNB-19 CNS): > 100 µM
TGI (SK-MEL-28 melanoma): > 100 µM
TGI (CCRF-CEM leukemia): > 100 µM
TGI (HCT-116 colon): 32.7 µM
TGI (CAKI-1 renal): > 100 µM
TGI (UACC-62 melanoma): 24 µM
TGI (TK-10 renal): 66.9 µM
TGI (SN12C renal): 81 µM
TGI (SF-268 CNS): > 100 µM
TGI (HCT-15 colon): > 100 µM
TGI (NCI/ADR-RES ovarian): > 100 µM
TGI (OVCAR-4 ovarian): > 100 µM
TGI (U251 CNS): 41.7 µM
TGI (MDA-N): > 100 µM
TGI (MDA-MB-435): > 100 µM
TGI (HCC-2998 colon): 29.9 µM
TGI (DU-145 prostate): > 100 µM
TGI (OVCAR-3 ovarian): 15.9 µM
TGI (A549 NSCLC): > 100 µM
TGI (HOP-92 NSCLC): 63.3 µM
TGI (UO-31 renal): 63.3 µM
TGI (RPMI-8226 leukemia): 68.7 µM
TGI (NCI-H522 lung): 53.8 µM
TGI (SF-539 CNS): > 100 µM
TGI (SNB-75 CNS): 69.2 µM
TGI (NCI-H226 lung): 78.4 µM
TGI (NCI-H460 lung): 43.8 µM
TGI (EKVX NSCLC): 61.4 µM
TGI (HS 578T breast): > 100 µM
TGI (SF-295 CNS): 33.9 µM
TGI (SR leukemia): > 100 µM
TGI (M14 melanoma): 98.5 µM
TGI (MCF7 breast): 83.2 µM
TGI (PC-3 prostate): 40.4 µM
TGI (A498 renal): 33.2 µM
TGI (RXF 393 renal): 52.6 µM
TGI (MDA-MB-231 breast): 37 µM
TGI (MALME-3M melanoma): 73.3 µM
TGI (SK-MEL-5 melanoma): 26.9 µM
TGI (KM12 colon): > 100 µM
TGI (SW-620 colon): > 100 µM
TGI (T-47D breast): 69.5 µM
TGI (OVCAR-5 ovarian): 80.8 µM
TGI (BT-549 breast): 73.7 µM
TGI (SK-MEL-2 melanoma): 36 µM
TGI (SK-OV-3 ovarian): 43.6 µM
TGI (IGROV1 ovarian): > 100 µM
TGI (786-0 renal): > 100 µM
TGI (HL-60(TB) leukemia): > 100 µM
TGI (UACC-257 melanoma): 40.5 µM
TGI (OVCAR-8 ovarian): > 100 µM
TGI (HT29 colon): > 100 µM
TGI (NCI-H23 lung): 89.1 µM
TGI (LOX IMVI melanoma): > 100 µM
TGI (K-562 leukemia): > 100 µM
TGI (HOP-62 NSCLC): 7.32 µM

CCNC(=O)OCC1C2=C(C(=O)C(C)=C(N)C2=O)N2CC3C(N3C)C12OC (stereo unspecified)
TGI (ACHN renal): > 61.9 µM
TGI (COLO 205 colon): > 100 µM
TGI (SNB-19 CNS): > 100 µM
TGI (SK-MEL-28 melanoma): > 100 µM
TGI (CCRF-CEM leukemia): > 100 µM
TGI (HCT-116 colon): > 63.5 µM
TGI (CAKI-1 renal): > 100 µM
TGI (UACC-62 melanoma): 33.4 µM
TGI (TK-10 renal): > 100 µM
TGI (SN12C renal): > 100 µM
TGI (SF-268 CNS): > 100 µM
TGI (HCT-15 colon): 50.7 µM
TGI (NCI/ADR-RES ovarian): > 100 µM
TGI (OVCAR-4 ovarian): > 79 µM
TGI (U251 CNS): > 100 µM
TGI (MDA-N): > 100 µM
TGI (MDA-MB-435): > 100 µM
TGI (HCC-2998 colon): 35.3 µM
TGI (DU-145 prostate): > 100 µM
TGI (OVCAR-3 ovarian): > 86.2 µM
TGI (MOLT-4 leukemia): > 76.3 µM
TGI (A549 NSCLC): > 100 µM
TGI (HOP-92 NSCLC): > 100 µM
TGI (UO-31 renal): 64.3 µM
TGI (RPMI-8226 leukemia): > 100 µM
TGI (NCI-H522 lung): 34.5 µM
TGI (SF-539 CNS): > 85.1 µM
TGI (SNB-75 CNS): > 100 µM
TGI (NCI-H226 lung): > 100 µM
TGI (NCI-H460 lung): 12.1 µM
TGI (EKVX NSCLC): > 100 µM
TGI (HS 578T breast): > 100 µM
TGI (SF-295 CNS): > 100 µM
TGI (SR leukemia): > 32.6 µM
TGI (M14 melanoma): > 100 µM
TGI (MCF7 breast): > 100 µM
TGI (PC-3 prostate): > 100 µM
TGI (A498 renal): 77 µM
TGI (RXF 393 renal): > 100 µM
TGI (MDA-MB-231 breast): > 100 µM
TGI (MALME-3M melanoma): 41.8 µM
TGI (SK-MEL-5 melanoma): 29.5 µM
TGI (SW-620 colon): 32 µM
TGI (T-47D breast): > 100 µM
TGI (OVCAR-5 ovarian): > 100 µM
TGI (BT-549 breast): 99.1 µM
TGI (SK-MEL-2 melanoma): 71.2 µM
TGI (SK-OV-3 ovarian): > 100 µM
TGI (IGROV1 ovarian): 77 µM
TGI (786-0 renal): > 83 µM
TGI (HL-60(TB) leukemia): > 44.1 µM
TGI (UACC-257 melanoma): > 100 µM
TGI (OVCAR-8 ovarian): > 100 µM
TGI (HT29 colon): > 100 µM
TGI (NCI-H23 lung): 14.2 µM
TGI (LOX IMVI melanoma): > 68.7 µM
TGI (K-562 leukemia): > 100 µM
TGI (HOP-62 NSCLC): > 100 µM
